Results on one compound are retold here after paper PMC2193921 (The Journal of Experimental Medicine, 2002).

Structures are written as SMILES.

The assay deals with highly tumor reactive A2/Melan-A multimer+ CD8+ T cell clones. Particulars: 4 h.

For the compound `CC[C@H](C)[C@H](NC(=O)CNC(=O)[C@H](C)NC(=O)[C@H](C)N)C(=O)NCC(=O)N[C@H](C(=O)N[C@@H](CC(C)C)C(=O)N[C@H](C(=O)N[C@H](C(=O)O)C(C)C)[C@@H](C)O)[C@@H](C)CC` [Melan-A 27–35], the half-maximal inhibitory concentration (IC50) – broadly, the concentration needed to halve the response being measured – was about 1 nM.
